# Like-named read-outs stand apart in the source and are kept apart here.
# Assays:
# K. pneumoniae 1-220S = assay: MIC, in vitro antibacterial activity (standard strains); assay type: cell-based, Klebsiella pneumoniae; details: Klebsiella pneumoniae, 1220S; 10^6 cells/ml; Gram -; read-out: MIC
# [1] = test system: Acinetobacter anitratus IID 876; assay: as above; assay type: cell-based; details: Acinetobacter calcoaceticus, IID876; 10^6 cells/ml; Gram -; read-out: MIC
# [2] = test system: Proteus vulgaris IFO 3167; assay: as above; assay type: cell-based; details: Proteus vulgaris, IFO3167; 10^6 cells/ml; Gram -; read-out: MIC
# [3] = test system: Bacteroides fragilis GM 7000; assay: as above; assay type: cell-based; details: Bacteroides fragilis, GM7000; 10^6 cells/ml; Gram -; read-out: MIC
# [4] = test system: Propionibacterium acens 11828; assay: as above; assay type: cell-based; details: Propionibacterium, 11828; 10^6 cells/ml; Gram +; read-out: MIC
# Shigella sonnei IID 969 = assay: as above; assay type: cell-based; details: Shigella sonnei, IID969; 10^6 cells/ml; Gram -; read-out: MIC
# Procedure: Minimal inhibitory concentrations (MICs) were determined in accordance with the method recommended by Japan Society of Chemotherapy.
# E. faecalis IID 682 = assay: as above; assay type: cell-based; details: Enterococcus faecalis, IID682; 10^6 cells/ml; Gram +; read-out: MIC
# [5] = test system: Salmonella enteritidis IID 604; assay: as above; assay type: cell-based; details: Salmonella enterica; 10^6 cells/ml; Gram -; read-out: MIC
# [6] = test system: Staphylococcus aureus 209 P; assay: as above; assay type: cell-based; details: Staphylococcus aureus, 209P; 10^6 cells/ml; Gram +; read-out: MIC
# F. necrophorum S-45 = assay: as above; assay type: cell-based; details: Fusobacterium necrophorum, S45; 10^6 cells/ml; Gram -; read-out: MIC
# E. coli ML 4707 = assay: as above; assay type: cell-based, Escherichia coli; details: Escherichia coli, read-out: MIC
# [7] = test system: Pseudomonas aeruginosa V-1; assay: as above; assay type: cell-based; details: Pseudomonas aeruginosa, V1; 10^6 cells/ml; Gram -; read-out: MIC
# [8] = test system: Veillonella parvula KYA 10790; assay: as above; assay type: cell-based; details: Veillonella parvula, KYA10790; 10^6 cells/ml; Gram -; read-out: MIC
# S. epidermidis IID 866 = assay: as above; assay type: cell-based; details: Staphylococcus epidermidis, IID866; 10^6 cells/ml; Gram +; read-out: MIC
# B. distasonis 8503 = assay: as above; assay type: cell-based; details: Parabacteroides distasonis, 8503; 10^6 cells/ml; Gram -; read-out: MIC
# C. perfringens KYA 13123 = assay: microbe, parasite or virus in culture; assay type: cell-based; details: Clostridium perfringens, KYA13123
# [9] = test system: Fusobacterium mortiferum 4249; assay: MIC, in vitro antibacterial activity (standard strains); assay type: cell-based; details: Fusobacterium mortiferum, 4249; 10^6 cells/ml; Gram -; read-out: MIC
# [10] = test system: Peptostreptococcus anaerobius KYA 27337; assay: as above; assay type: cell-based; details: Peptostreptococcus anaerobius, KYA27337; 10^6 cells/ml; Gram +; read-out: MIC
# [11] = test system: Yersinia enterocolitica IID 981; assay: as above; assay type: cell-based; details: Yersinia enterocolitica, IID981
# [12] = test system: Citrobacter freundii IID 976; assay: as above; assay type: cell-based; details: Citrobacter freundii, IID976; 10^6 cells/ml; Gram -; read-out: MIC
# S. pneumoniae IID 552 = assay: as above; assay type: cell-based; details: Streptococcus pneumoniae, IID552; 10^6 cells/ml; Gram +; read-out: MIC
# B. fragilis 0558 = assay: as above; assay type: cell-based, Bacteroides fragilis; details: Bacteroides fragilis, 0558; 10^6 cells/ml; Gram -; read-out: MIC
# F. varium KYA 8501 = assay: as above; assay type: cell-based; details: Fusobacterium varium, KYA8501; 10^6 cells/ml; Gram -; read-out: MIC
# [13] = test system: Alcaligenes faecalis 0114002; assay: as above; assay type: cell-based; details: Alcaligenes faecalis, 0114002; 10^6 cells/ml; Gram -; read-out: MIC
# C. ramosum = assay: as above; assay type: cell-based; details: Thomasclavelia ramosa; 10^6 cells/ml; Gram +; read-out: MIC
# S. aureus Smith = assay: as above; assay type: cell-based, Staphylococcus aureus; details: Staphylococcus aureus; 10^6 cells/ml; Gram +; read-out: MIC
# [14] = test system: Clostridium difficile I-E; assay: as above; assay type: cell-based; details: Clostridioides difficile; 10^6 cells/ml; Gram +
# P. cepacia GIFU 518 = assay: as above; assay type: cell-based; details: Burkholderia cepacia, GIFU518
# B. fragilis 25285 = assay: as above; assay type: cell-based, Bacteroides fragilis; details: Bacteroides fragilis, 25285; 10^6 cells/ml; Gram -; read-out: MIC
# E. coli ATCC 10536 = assay: as above; assay type: cell-based, Escherichia coli; details: Escherichia coli, ATCC10536; 10^6 cells/ml; Gram -; read-out: MIC
# [15] = test system: Bacillus subtilis PCI 219; assay: as above; assay type: cell-based; details: Bacillus subtilis, PCI219; 10^6 cells/ml; Gram +; read-out: MIC
# [16] = test system: Streptococcus pyogenes (S-8); assay: as above; assay type: cell-based; details: Streptococcus pyogenes; 10^6 cells/ml; Gram +; read-out: MIC
# [17] = ML4707, 10^6 cells/ml, Gram -, Table 1
# [18] = 10^6 cells/ml, Gram -, read-out: MIC
Compound,MIC (K. pneumoniae 1-220S) [µg/mL],MIC [1] [µg/mL],MIC [2] [µg/mL],MIC [3] [µg/mL],MIC [4] [µg/mL],MIC (Shigella sonnei IID 969) [µg/mL],MIC (E. faecalis IID 682) [µg/mL],MIC [5] [µg/mL],MIC [6] [µg/mL],MIC (F. necrophorum S-45) [µg/mL],MIC (E. coli ML 4707; [17]) [µg/mL],MIC [7] [µg/mL],MIC [8] [µg/mL],MIC (S. epidermidis IID 866) [µg/mL],MIC (B. distasonis 8503) [µg/mL],MIC (C. perfringens KYA 13123) [µg/mL],MIC [9] [µg/mL],MIC [10] [µg/mL],MIC [12] [µg/mL],MIC (S. pneumoniae IID 552) [µg/mL],other results
"C[C@H]1CN(c2c(F)cc3c(=O)c(C(=O)O)cn(C4CC4)c3c2F)C[C@H]1N.Cl (relative stereo) [Example 20, 7-(cis-3-Amino-4-methyl-1-pyrrolidinyl)-1-cyclopropyl-6,8-difluoro-1,4-dihydro-4-oxo-3-quinolinecarboxylic acid hydrochloride]",0.05,0.05,0.025,0.39,3.13,0.0125,0.2,0.05,0.05,0.39,0.025,0.2,0.2,0.05,0.78,0.2,0.39,0.39,0.025,0.2,"MIC [11, 18]: 0.05 µg/mL; MIC (B. fragilis 0558): 0.39 µg/mL; MIC (F. varium KYA 8501): 1.56 µg/mL; MIC [13]: 0.39 µg/mL; MIC (C. ramosum): 1.56 µg/mL; MIC (S. aureus Smith): 0.05 µg/mL; MIC [14]: 1.56 µg/mL; MIC (P. cepacia GIFU 518; [18]): 0.39 µg/mL; MIC (B. fragilis 25285): 0.39 µg/mL; MIC (E. coli ATCC 10536): 0.025 µg/mL; MIC [15]: 0.025 µg/mL; MIC [16]: 0.2 µg/mL"
"C[C@H]1CN(c2c(F)cc3c(=O)c(C(=O)O)cn(C4CC4)c3c2Br)C[C@H]1N (relative stereo) [Example 21, 7-(cis-3-Amino-4-methyl-1-pyrrolidinyl)-8-bromo-1-cyclopropyl-6-fluoro-1,4-dihydro-4-oxo-3-quinolinecarboxylic acid]",0.05,0.025,0.0125,0.1,1.56,0.0063,0.2,0.025,0.025,0.1,0.0125,0.39,0.1,0.05,0.39,0.1,0.2,0.2,0.025,0.2,MIC [11]: 0.025 µg/mL; MIC (B. fragilis 0558): 0.05 µg/mL; MIC (F. varium KYA 8501): 0.78 µg/mL; MIC [13]: 0.2 µg/mL; MIC (C. ramosum): 0.78 µg/mL; MIC (S. aureus Smith): 0.025 µg/mL; MIC [14]: 0.39 µg/mL; MIC (P. cepacia GIFU 518; [18]): 0.39 µg/mL; MIC (B. fragilis 25285): 0.05 µg/mL; MIC (E. coli ATCC 10536): 0.0125 µg/mL; MIC [15]: 0.0125 µg/mL; MIC [16]: 0.1 µg/mL
"C[C@H]1CN(c2c(F)cc3c(=O)c(C(=O)O)cn(C4CC4)c3c2Cl)C[C@H]1N (relative stereo) [Example 16, 7-(cis-3-Amino-4-methyl-1-pyrrolidinyl)-8-chloro-1-cyclopropyl-6-fluoro-1,4-dihydro-4-oxo-3-quinolinecarboxylic acid]",0.05,0.025,0.0125,0.05,0.78,0.0063,0.1,0.025,0.05,0.05,0.0063,0.1,0.1,0.05,0.2,0.05,0.1,0.1,0.025,0.1,"MIC (E. coli ML 4707; ML4707, Table 2, strain of the mouse infection): 0.0125 µg/mL; MIC [11, 18]: 0.05 µg/mL; MIC (B. fragilis 0558): 0.05 µg/mL; MIC (F. varium KYA 8501): 0.78 µg/mL; MIC [13]: 0.1 µg/mL; MIC (C. ramosum): 0.39 µg/mL; MIC (S. aureus Smith): 0.025 µg/mL; MIC [14]: 0.39 µg/mL; MIC (P. cepacia GIFU 518): 0.39 µg/mL; MIC (B. fragilis 25285): 0.05 µg/mL; MIC (E. coli ATCC 10536): 0.0125 µg/mL; MIC [15]: 0.0125 µg/mL; MIC [16]: 0.1 µg/mL"

# — patent publication US4753953A, “Pyridonecarboxylic acid derivatives and antibacterial pharmaceutical compositions thereof” (priority 1985, dated 1988)
